Key:
[1] = system: HO-1; experiment: HO-1 expression in glial cultures (western blot); type: cell-based, rat; settings: 30 μM, 24 h
Experimental: (§1) TNFα is considered one of the most important pro-inflammatory cytokines. […] The production of TNFα induced by LPS was reduced by 33% at 10 μM and by 50% at 30 μM. […] To further confirm the anti-inflammatory potential of compound 5c we measured the expression of thre NOX2 enzyme, since this isoform has been widely described as being specific tomicroglial cells. As depicted in Fig. 6F, LPS (1 μg/mL) stimulation of primary glial cultures during 24 h increased the expression of NOX2 by 65.3% (p < 0.01) compared to basal conditions.
(§2) Figure 6 Nitrites (A), TNFα (B), iNOS (C) and NOX activity (E) blockade (D) and NOX2 production (F) by 5c in primary glial cultures stimulated with LPS (1 μg/mL), HO-1 expression induced by this compound after 24 h. […] NOX activity was measured after 4 h co-treatment with LPS and compound 5c. […]
(§3) After treatment, mixed glial cells were washed with cold PBS and lysed in 100 μl ice-cold lysis buffer (1% Nonident P-40, 10% glycerol, 137 mM NaCl, 20 mM Tris HCl pH 7.5, 1 μg/ml leupeptin, 1 mM phenylmethylsulfonyl fluoride, 20 mM NaF, 1 mM sodium pyrophosphate, and 1 mM Na3VO4). […] Peroxidase-conjugated secondary antibodies (1:10000) were used to detect proteins by enhanced chemiluminescence detected by Advance Western-blotting Detection Kit (GE Healthcare, Barcelona, Spain). […]

[2] = system: iNOS; experiment: iNOS expression in LPS-stimulated glial cultures (western blot); type: cell-based, rat; settings: 30 μM, LPS 1 μg/mL
Experimental: as §1, §2, §3

## COc1cccc(C2C(C#N)=C(N)Oc3n[nH]c(C)c32)c1 (centres unmarked) [Compound 5c, 6-Amino-4-(3-methoxyphenyl)-3-methyl-2,4-dihydropyrano[2,3-c]pyrazole-5-carbonitrile]
[1]
  HO-1 expression increase in glial cultures: 2.3 times
[2]
  Reduction of iNOS expression: almost completely
